Data from patent publication US20230220353A1, “IN VITRO LIVER ORGANOIDS AND MINI-BILE DUCT MODELS OF BILIARY ARTRESIA AND APPLICATIONS THEREOF” (priority 2022, published 2023).

Key:
human liver organoids [1] = experiment: Immunostaining of human liver organoids for differentiation, polarity, cytoskeleton and β-amyloid markers; assay type: cell-based
Experimental: Hepatocytic differentiation in human organoids was assessed by immuno-fluorescence for hepatocyte maker (HNF4A). Organoids in the Matrigel were washed with PBS (phosphate-buffered saline) before being fixed with 4% paraformaldehyde at room temperature for 20 minutes. The organoids were permeabilized with Triton X-100 (0.5% in PBS) for 20 minutes and blocked with 3% bovine serum albumin (BSA, Sigma-Aldrich) in PBS with 0.05% Triton X-100 (PBST) for 30 minutes at room temperature. The organoids were then incubated in primary antibodies (diluted in PBST with 3% BSA) at 4° C. overnight. After PBST washes (5 minutes for 3 times), organoids were incubated in secondary antibodies (diluted in PBST with 3% BSA) for 2 hours at room temperature. Afterward, the organoids were rinsed with PBS 3 times and incubated with DAPI solution for 30 minutes at room temperature. The organoids were rinsed with PBS (5 minutes for 3 times). Primary and secondary antibodies used in this examples were anti-ZO-1 (1:50, RA231621, Thermo Fisher), anti-CK19 (1:200, ab220193, Abcam), anti-F-actin (1:500, A22287, Thermo Fisher), anti-beta-amyloid (1:200, SIG-39220, 4G8, BioLegend), anti-HNF4A (1:50, ab201460, Abcam), Alexa Fluor 488 (1:500, A11008, Invitrogen) and Alexa Fluor 594 (1:500, A11032, Invitrogen).
(§1) Organoids were imaged on a laser confocal microscopy (Leica) equipped with a 20× dry objective and a 63× oil-immersion objective. Images were analyzed using ImageJ software. For quantification of the number of cilia from each group, the organoids were imaged using confocal microscopy (0.8 μm Z-axis interval, 40 μm in thickness). Maximum intensity projection was performed for visualization of the cilia in the organoids. FIG. 3A are representative images of control and day-2 biliatresone-treated human liver organoids stained for HNF4A (green). Nuclei were stained with DAPI (blue). The percentage of HNF4A positive cells in control and day-2 biliatresone-treated organoids were determined by counting the total number of cells and HNF4A+ cells of the organoids. Number of organoids counted in each group=3; *, p<0.05, student's t-test; error bars indicated the standard deviation.
To test if biliatresone induces apical-basal polarity defects in human organoids, the control group and biliatresone-treated organoids were stained with anti-ZO-1 antibody. FIG. 4 depicts the result of immunostaining of control and day-2 biliatresone-treated human liver organoids for ZO-1 (green) and CK19 (red). Nuclei were stained with DAPI (blue).
To investigate if biliatresone also induces cytoskeleton defects and Aβ accumulation in human organoids, Immunostaining was carried out for the control and day-2 biliatresone-treated human liver organoids for cytoskeleton protein F-actin (green) and β-amyloid (red). Nuclei were stained with DAPI (blue).
The percentages of β-amyloid positive cells in control and day-2 biliatresone-treated organoids were determined by counting total number of cells and β-amyloid+ cells of the organoids. Number of organoids counted in each group=3; *, p<0.05, student's t-test; error bars indicated the standard deviation.

human liver organoids [2] = experiment: Growth and morphology of human liver organoids (Hematoxylin and Eosin staining); assay type: cell-based; conditions: 2 μg/ml biliatresone
Experimental: Briefly, liver biopsy was minced and digested in gentle MACS-C Tube with 5 ml digestion medium (Multi Tissue Dissociation Kit 1), filtered (70 μm and 30 μm) and sorted by human CD326 (EpCAM) magnetic beads. CD326 positive cells were mixed with Matrigel (50,000 cells in 50 μl) and added to each well of a four-well culture plate (Nunc™ 4-Well Dishes). After Matrigel solidification, organoid medium (Advanced DMEM/F12 supplemented with 1% Penicillin/Streptomycin (Invitrogen), 250 ng/ml Amphotericin B (GIBCO), […], 1% N2 and 1% B27(GIBCO), 1.25 mM N-Acetylcysteine (Sigma), 10 nM gastrin (Sigma), and the growth factors: 50 ng/ml mEGF (Peprotech), 100 ng/ml FGF10 (Peprotech), 25 ng/ml HGF (Peprotech), 10 mM Nicotinamide (Sigma), 5 μM A83.01 (Tocris), and 10 μM FSK (Tocris), 25 ng/ml Noggin (Peprotech), 500 ng/ml R-Spondin 1 (R&D), 100 ng/ml Wnt3a (R&D), 10 μM Y27632 (Sigma Aldrich)) was added for organoid culturing. The medium was changed every three days. After culturing for 5 days, biliatresone solution (2867, Axon MEDCHEM; 2 μg/ml in DMSO) was added into the medium and the organoids were cultured for different periods for subsequent analysis. For the untreated control culture, DMSO (same volume as biliatresone) was added to the culture. FIG. 1 is a schematic diagram of the generation of biliatresone treated human liver organoids. […]

human cholangiocytes = experiment: Cilia mechano-sensory calcium influx assay in mini-bile duct under shear flow (Calbryte 520); assay type: cell-based; conditions: 2 μg/ml for 5 days, shear flow 1 dyne/cm2, vs untreated cholangiocytes
Experimental: The organoids were released from the Matrigel by cold Advanced DMEM. The organoid pellets were obtained by centrifugation at 300 g, 3 minutes. Afterwards, the organoids were digested for 5 minutes at 37° C. via 1 mL of TrypLE Express Enzyme (1×). About 5,000 of organoid cells were seeded into each channel of the Matrigel coated 6-channel ibidi microfluidic chips (80607, ibidi), and the microfluidic chips were incubated at 37° C. in incubator. At day 3, monoloayer of cholangiocytes was formed representing the mini-bile duct with the luminal side facing the medium and the basal side facing the bottom of the microfluidic chips. To prepare for the calcium influx measurement, cholangiocyte monolayer was first incubated with 5 μM of Calbryte 520-AM (ATT) (prepared in Hanks' balanced salt solution, HBSS) for 1 hour at 37° C. Then, the cholangiocytes were washed with HBSS (5 minutes for 3 times). […] Time-lapse images were acquired for green fluorescence for 20 seconds (1-second intervals and 10 milliseconds exposure time) using Nikon Ti2e microscope (Nikon, Japan). […]
On day 3 post confluence, cholangiocytes were incubated with 5 μM of Calbryte 520-AM (ATT) (prepared in Hanks' balanced salt solution, HBSS) for 1 hour at 37° C. […] Time-lapse images were acquired for green fluorescence for 20 seconds (1-second intervals and 10 milliseconds exposure time) using Nikon Ti2e microscope (Nikon, Japan). […]

SOX17 = SOX17 mRNA expression by real-time PCR normalized to GAPDH; assay type: cell-based, human; conditions: day-2 treated organoids vs control
Excerpt: Gene expressions in liver ductal organoids with or without biliatresone treatment for 2 day and 5 days were investigated. mRNA expression levels were characterized by real-time PCR for SOX17 normalized to GAPDH.

human liver organoids [3] = experiment: FITC-labeled dextran diffusion test (tight junction barrier integrity); assay type: cell-based; conditions: day-2 treated organoids, after 10 minutes of incubation; not observed in control
Experimental: In order to determine the integrity of liver organoids, a FITC-labeled dextran diffusion test was carried out to investigate if biliatresone-treated organoids has defects in the tight junction barrier for solutes. […] The fluorescent intensity of liver organoids was imaged using laser confocal microscopy at 10 and 30 minutes.

human liver organoids [4] = experiment: Ciliated cholangiocyte count (pericentrin / acetylated α-tubulin immunostaining); assay type: cell-based
Experimental: as §1
To investigate if biliatresone disturbed ciliogenesis in human organoids, control organoids and biliatresone-treated organoids were immuno-stained for ciliary proteins Pericentrin (PCNT) and alpha-tubulin. […] The percentages of ciliated cells in control and biliatresone-treated organoids were determined by counting total number of cells and ciliated cells of the organoids. Number of organoids counted in each group=3; *, p<0.05, student's t-test; error bars indicated the standard deviation.

MDR1 = MDR1 (Homo sapiens, UniProt P08183); experiment: MDR1 activity assay (MDR1-mediated Rhodamine 123 transport assay); conditions: day-2 biliatresone-treated organoids, Rhodamine 123 100 μM, 30 minutes
Experimental: A MDR1 activity assay (MDR1-mediated Rhodamine 123 (R123) transport assay) was then performed to investigate the defective cholangiocyte differentiation of biliatresone-treated organoids.
Afterward, the liver organoids were washed with PBS and incubated in culture medium containing Rhodamine 123 (100 μM) at 37° C. for 30 minutes. After washing with PBS, the fluorescence of liver organoids was then visualized by laser confocal microscopy (Leica) immediately (as 0 minutes) and after 30 minutes incubation in culture medium.

GSH = GSH level in liver organoids; assay type: cell-based, human
Experimental: GSH levels were measured in liver organoids from 0 to 48 hours without (Ctrl) or with biliatresone. Data was obtained from 3 wells in each group; *, p<0.05, student's t-test; error bars indicated the standard deviation.

[5] = day-2 treated organoids vs control

Sequence of MDR1 (P08183 whole entry): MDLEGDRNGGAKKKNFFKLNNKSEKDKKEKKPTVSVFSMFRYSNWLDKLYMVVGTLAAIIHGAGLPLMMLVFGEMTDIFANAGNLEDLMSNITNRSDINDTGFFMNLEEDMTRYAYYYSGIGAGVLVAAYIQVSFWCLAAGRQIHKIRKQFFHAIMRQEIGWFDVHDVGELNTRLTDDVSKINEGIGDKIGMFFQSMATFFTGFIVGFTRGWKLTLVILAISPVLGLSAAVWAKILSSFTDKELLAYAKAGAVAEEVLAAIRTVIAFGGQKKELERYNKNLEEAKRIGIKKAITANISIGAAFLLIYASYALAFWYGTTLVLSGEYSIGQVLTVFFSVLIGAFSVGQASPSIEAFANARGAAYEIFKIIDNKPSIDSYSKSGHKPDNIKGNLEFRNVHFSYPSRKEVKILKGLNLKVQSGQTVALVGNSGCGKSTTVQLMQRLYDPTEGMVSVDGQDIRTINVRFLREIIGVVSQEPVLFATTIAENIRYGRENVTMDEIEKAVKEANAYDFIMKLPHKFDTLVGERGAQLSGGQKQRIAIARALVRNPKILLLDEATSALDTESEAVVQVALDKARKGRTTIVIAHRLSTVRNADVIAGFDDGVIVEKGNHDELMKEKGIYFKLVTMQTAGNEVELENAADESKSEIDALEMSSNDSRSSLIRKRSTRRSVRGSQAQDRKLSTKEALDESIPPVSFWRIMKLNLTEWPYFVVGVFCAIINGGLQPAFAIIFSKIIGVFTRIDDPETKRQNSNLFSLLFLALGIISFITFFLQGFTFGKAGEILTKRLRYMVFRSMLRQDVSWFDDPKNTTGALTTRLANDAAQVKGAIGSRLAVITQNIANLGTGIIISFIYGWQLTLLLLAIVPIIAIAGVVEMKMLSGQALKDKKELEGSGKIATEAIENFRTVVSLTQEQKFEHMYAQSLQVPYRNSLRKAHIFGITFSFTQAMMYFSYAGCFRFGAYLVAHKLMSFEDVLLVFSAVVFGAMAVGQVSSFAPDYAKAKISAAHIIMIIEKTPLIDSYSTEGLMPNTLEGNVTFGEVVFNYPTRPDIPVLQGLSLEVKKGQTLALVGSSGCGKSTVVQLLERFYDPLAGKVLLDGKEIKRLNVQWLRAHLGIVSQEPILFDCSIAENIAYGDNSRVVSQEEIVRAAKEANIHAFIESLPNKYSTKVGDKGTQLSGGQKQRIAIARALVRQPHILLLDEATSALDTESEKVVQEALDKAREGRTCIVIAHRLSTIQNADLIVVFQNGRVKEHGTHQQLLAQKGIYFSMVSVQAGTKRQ

SMILES: C=C(C(=O)c1c(OC)cc2c(c1OC)OCO2)c1ccccc1O [biliatresone, Biliatresone]
- percentage of Aβ positive cells (human liver organoids [1]; day-2 treated culture vs control culture (no Aβ positive cells in control), p<0.05): significantly higher
- ZO-1 immuno-reactivity (human liver organoids [1]; [5]): markedly reduced
- expression of cholangiocyte MDR1 (human liver organoids [1]; [5]): drastically reduced
- percentage of HNF4A+ cells in organoids (human liver organoids [1]; day-2 treated organoids, 2 μg/ml, Mean±SD, n=3, control 14.9±2%): 57.3±8%
- F-actin localization (human liver organoids [1]; day-2 treated organoids, control: apical side only): both the apical and the basal sides
- expression of cholangiocyte marker CK19 (human liver organoids [1]; treated organoids vs control): drastically reduced
- organoid morphology (human liver organoids [2]; day 5, vs DMSO control): not well-expanded
- organoid diameter (human liver organoids [2]; day 5, control organoids 25-100 μm): 5-20 μm
- extent of calcium influx (human cholangiocytes): significantly reduced
- percentage of evoked cells after perfusion stimulation (human cholangiocytes): significantly reduced
- SOX17 expression (SOX17): small but significant drop
- FITC-dextran (10 kDa) localization (human liver organoids [3]): localize in the lumen
- percentage of ciliated cells (human liver organoids [4]; day 1 of treatment, Mean±SD, control 10.7±5%): 4.2±2%
- percentage of ciliated cells (human liver organoids [4]; day 3 of treatment): 0%
- R123 transport across the organoid membrane (MDR1): very inefficient
- GSH level (GSH; 6, 24 and 48 hours of treatment): restored
- GSH level (GSH; 3 hours of treatment vs control): small but significant drop
